Assay results as given in ChEMBL document CHEMBL1158187, “Five novel mono-tetrahydrofuran ring acetogenins from the seeds of Annona muricata” (J Nat Prod, 1996).
In brackets after ≈: the same amount, converted by molar mass.

Tests used:
[1] = tested on: Agrobacterium tumefaciens; experiment: Inhibition of growth of crown gall tumors in Agrobacterium tumefaciens with tumor-inducing plasmid on potato disk; assay type: functional
A549 = experiment: Cytotoxicity against human A549 cells; assay type: functional, cell-based
MCF7 = experiment: Cytotoxicity against human MCF7 cells; assay type: functional, cell-based
HT-29 = experiment: Cytotoxicity against human HT29 cells; assay type: functional, cell-based
[2] = Toxicity in Artemia salina; assay type: organism-based; details: in vivo

SMILES	inhibition (INH) [1]	IC50 (A549)	IC50 (MCF7)	IC50 (HT-29)	LC50 [2]
CCCCCCCCCCCC[C@@H]1OCO[C@H](CCC[C@H](O)CCCCC[C@@H](O)CC2=C[C@H](C)OC2=O)[C@@H]2CC[C@@H]1O2	22%	0.079 µg/mL (≈ 0.133 µM)	2.6 µg/mL (≈ 4.37 µM)	2.1 µg/mL (≈ 3.53 µM)	–
CCCCCCCCCCCC[C@@H](O)[C@H]1CC[C@H]([C@H]2CC[C@H](CCCCCCC[C@@H](O)CC3=C[C@H](C)OC3=O)OCO2)O1 [ARIANACIN FORMAL]	28%	0.02 µg/mL (≈ 0.0328 µM)	8.5 µg/mL (≈ 14 µM)	1 µg/mL (≈ 1.64 µM)	–
CCCCCCCCCCCCCC[C@H](O)[C@@H]1CC[C@H]([C@H]2CC[C@@H](CCCCC[C@@H](O)CC3=C[C@H](C)OC3=O)OCO2)O1	21%	0.53 µg/mL (≈ 0.87 µM)	0.52 µg/mL (≈ 0.854 µM)	2.6 µg/mL (≈ 4.27 µM)	–
CCCCCCCCCCCC[C@@H](O)[C@H]1CC[C@H]([C@H](O)CC[C@H](O)CCCCCCC[C@@H](O)CC2=C[C@H](C)OC2=O)O1 [JAVORICIN]	47%	0.017 µg/mL (≈ 0.0285 µM)	0.23 µg/mL (≈ 0.385 µM)	1.8 µg/mL (≈ 3.02 µM)	4.9 µg/mL (≈ 8.21 µM)
CCCCCCCCCCCCCC[C@@H](O)[C@H]1CC[C@H]([C@H](O)CC[C@H](O)CCCCC[C@@H](O)CC2=C[C@H](C)OC2=O)O1 [GONIOTHALAMICIN]	–	0.008 µg/mL (≈ 0.0134 µM)	0.057 µg/mL (≈ 0.0955 µM)	0.0011 µg/mL (≈ 0.00184 µM)	0.6 µg/mL (≈ 1.01 µM)
CCCCCCCCCCCC[C@H](O)[C@@H]1CC[C@H]([C@H](O)CCCC[C@H](O)CCCCC[C@@H](O)CC2=C[C@H](C)OC2=O)O1	28%	0.23 µg/mL (≈ 0.385 µM)	1.18 µg/mL (≈ 1.98 µM)	–	2.3 µg/mL (≈ 3.85 µM)
COc1cccc2c1C(=O)c1c(O)c3c(c(O)c1C2=O)C[C@@](O)(C(=O)CO)C[C@@H]3O[C@H]1C[C@H](N)[C@H](O)[C@H](C)O1 [DOXORUBICIN]	–	0.0004 µg/mL (≈ 0.000736 µM)	–	0.00051 µg/mL (≈ 0.000938 µM)	–
CCCCCCCCCCCC[C@@H](O)[C@H]1CC[C@H]([C@H](O)CC[C@@H](O)CCCCCCC[C@@H](O)CC2=C[C@H](C)OC2=O)O1 [ARIANACIN]	26%	0.0047 µg/mL (≈ 0.00787 µM)	0.4 µg/mL (≈ 0.67 µM)	4.4 µg/mL (≈ 7.37 µM)	7.1 µg/mL (≈ 11.9 µM)
CCCCCCCCCCCC[C@H](O)[C@@H]1CC[C@H]([C@H](O)CCCCC(=O)CCCCC[C@@H](O)CC2=C[C@H](C)OC2=O)O1	32%	0.35 µg/mL (≈ 0.588 µM)	0.29 µg/mL (≈ 0.487 µM)	0.0009 µg/mL (≈ 0.00151 µM)	1.8 µg/mL (≈ 3.03 µM)
CCCCCCCCCCCCCC[C@H](O)[C@@H]1CC[C@H]([C@H](O)CC[C@H](O)CCCCC[C@@H](O)CC2=C[C@H](C)OC2=O)O1	47%	0.13 µg/mL (≈ 0.218 µM)	1.05 µg/mL (≈ 1.76 µM)	0.0053 µg/mL (≈ 0.00888 µM)	5.2 µg/mL (≈ 8.71 µM)
CCCCCCCCCCCCCC[C@@H](O)[C@H]1CC[C@H]([C@H]2CC[C@@H](CCCCC[C@@H](O)CC3=C[C@H](C)OC3=O)OCO2)O1 [GONIOTHALAMICIN FORMAL]	–	0.025 µg/mL (≈ 0.0411 µM)	1.03 µg/mL (≈ 1.69 µM)	1.13 µg/mL (≈ 1.86 µM)	–
CCCCCCCCCCCC[C@@H](O)[C@H]1CC[C@H]([C@H]2CC[C@@H](CCCCCCC[C@@H](O)CC3=C[C@H](C)OC3=O)OCO2)O1 [JAVORICIN FORMAL]	31%	0.02 µg/mL (≈ 0.0328 µM)	2.9 µg/mL (≈ 4.76 µM)	5.6 µg/mL (≈ 9.2 µM)	–
